# Reference: EP0270317A2, “Pharmaceutical compositions for the treatment of diseases caused by viruses” (Kabushiki Kaisha Ueno Seiyaku Oyo Kenkyujo, priority 1986, dated 1988)
# Test system: HTLV-III
# Experiment: inhibition of viral infection, MT-4 cells infected with HTLV-III, time course (Example 18)
# Type: cell-based
# Conditions: sole use of 10 nM AZT or 5 µg/ml dextran sulfate; day 9
# Experimental: AIDS virus HTLV-III was challenged to established human T-lymphocyte culture cells MT-4 and the cell suspension and virus particles were incubated at 37°C for 1 hour. The cells were then washed with phosphate buffered saline once and cultured with or without various doses of the test substances in RPMI-1640 medium at 37°C under 5 % CO₂ in an incubator.
# MT-4 cells infected with HTLV-III were destructed as the virus proliferated, resulting in decrease of viable cells. Prior to the cytolysis by viral cytopathic effect, the cells infected with HTLV-III which were detectable by indirct immuno fluorescence method appeared. On day 12, number of the living cells was counted to know the extent of infection, and rate of the infected cells was determined by indirect immuno-fluorescence method using an antibody having specificity to the virus specific antigen. As the test substances, 3ʹ-azido-3ʹ-deoxythymidine (AZT) and dextran sulfate(M.W. 7000 - 8000, S-content 17 - 20%) (DS) were used.
# In the same procedure as in Expample 7, the MT-4 cells infected with HTLV-III were cultured in medium and the changes in the number of viable cells and the rate of the infected cells were recorded in time course. […]
compound,measurement,value
"Cc1cn([C@H]2C[C@H](N=[N+]=[N-])[C@@H](CO)O2)c(=O)[nH]c1=O [AZT, 3ʹ-azido-3ʹ-deoxythymidine]",infection,100%
